In US20260092868A1, “METHOD FOR SCREENING FOR AUTOPHAGY MODULATOR” (THE ASAN FOUNDATION, priority 2022, published 2026):

Assays:
SNU475 cells [1] = assay: Fluorescent tracker (ER-tracker, lysosome-tracker, mito-tracker) imaging by super-resolution microscopy (Airyscan); format: cell-based, human
Protocol: Changes in the endoplasmic reticulum and lysosomes were measured using a confocal microscope and fluorescent trackers. As the fluorescent trackers, ER-tracker, which enables the specific observation of only the endoplasmic reticulum, and lysosome-tracker, which enables the specific observation of only lysosomes, were used.
Specifically, SNU475 cells were treated with thapsigargin (10 μM) and then stained with ER-tracker or lysosome-tracker, the kinetics of the endoplasmic reticulum and lyosomes were analyzed by super-resolution microscopy (Airyscan), and the results thereof are shown in FIG. 5.
To confirm that high-density vesicles produced upon treatment with thapsigargin are specific to the endoplasmic reticulum, the kinetics of mitochondria were analyzed in the same manner as in 4.1 above by using mito-tracker, which is a mitochondria-specific tracker, and the results thereof are shown in FIG. 6.

SNU475 cells [2] = assay: Optical diffraction tomography (ODT) imaging of vesicles and organelles in SNU475 cells; format: cell-based, human
Protocol: To confirm changes in vesicles upon treatment with an autophagy modulator, SNU475 cells, which are a human hepatoma cell line, were treated with 10 μM thapsigargin, which is an autophagy activator, and then the changes in vesicles in the cells were examined.
More specifically, a SNU475 cell line was prepared in a TomoDish and the SNU475 cells were treated with 10 μM thapsigargin, and then optical diffraction tomography (ODT) images were generated by using HT-2H fluorescence holotomography (Tomocube).
SNU475 cells were treated with 10 μM thapsigargin to induce ER stress, and then changes in the refractive index and radius of vesicles produced in the cells were measured on the basis of images confirmed in Example 1, and the results thereof are shown in FIG. 2. In addition, SNU475 cells were treated with 10 μM thapsigargin, and the number and volume of vesicles in the SNU475 cells treated with thapsigargin were observed over time for 2 hours, and the results thereof are shown in FIG. 3.
To confirm statistical changes in the density and refractive index of vesicles and organelles upon treatment with thapsigargin, the densities and refractive indices of cells before and after SNU475 cells were treated with thapsigargin (10 μM) were compared. In addition, to confirm changes in the densities of organelles upon treatment with thapsigargin, the refractive indices of a nucleolus (No), an endoplasmic reticulum (ER), a cytosol (Cyt), and a plasma membrane (PM) were measured.
To confirm whether the same results as the case of thapsigargin can be obtained upon treatment with autophagy modulators other than thapsigargin, SNU475 cells were treated with each of CPA (20 μM) and TC (60 ug/mL) to induce ER stress, and then changes in vesicles produced in the cells were observed using HT-2H fluorescence holotomography (Tomocube). For observation, optical diffraction tomography (ODT) images 10 hours after treatment with CPA and ODT images 2 hours after treatment with TC were generated, and the results thereof are shown in FIG. 8.

SEC62 = assay: Colocalization of ER-phagy receptors with LC3 by immunofluorescence (IF); format: cell-based; conditions: 10 μM thapsigargin, IF (FIG. 7)
Protocol: (§1) To measure the activation levels of an autophagy marker and an ER-phagy marker after treatment with thapsigargin, the colocalization of ER-phagy receptors was measured.
(§2) More specifically, after treatment with thapsigargin (10 μM), the activation of CCPG1, FAM134B, RTN3, and SEC62 was examined by immunofluorescence (IF) analysis, and then the results thereof are shown in FIG. 7.

FAM134B = assay: as above; format: cell-based; conditions: 10 μM thapsigargin, IF (FIG. 7)
Protocol: as §1, §2

CCPG1 = assay: as above; format: cell-based; conditions: 10 μM thapsigargin, IF (FIG. 7)
Protocol: as §1, §2

RTN3 = assay: as above; format: cell-based; conditions: 10 μM thapsigargin, IF (FIG. 7)
Protocol: as §1, §2

SNU475 cells [3] = assay: ODT setup linking three-dimensional ODT imaging and two-dimensional fluorescence; format: cell-based, human; conditions: SNU475 cells after treatment with thapsigargin, ODT plus 2D fluorescence
Protocol: Additionally, changes in the endoplasmic reticulum and lysosomes in SNU475 cells treated with thapsigargin were analyzed using an ODT setup that can link three-dimensional ODT imaging and two-dimensional fluorescence. […] It was also confirmed that vesicles were produced in the ER region, followed by fusion with lysosomes.

[4] = 10 μM thapsigargin, observed for 2 hours (FIG. 3)

Row | Compound | production of vesicles and lysosomes containing ER components (SNU475 cells [1]; 10 μM thapsigargin, ER-tracker or lysosome-tracker (FIG. 5)) | time difference of production of large lysosomes relative to the ER (SNU475 cells [1]; 10 μM thapsigargin, lysosome-tracker (FIG. 5B)) | mitochondrial components in high-density vesicles (SNU475 cells [1]; thapsigargin, mito-tracker (FIG. 6)) | change in the refractive index of vesicles over time (SNU475 cells [2]; 10 μM thapsigargin (FIG. 2A)) | change in the radius of vesicles over time (SNU475 cells [2]; 10 μM thapsigargin (FIG. 2B)) | ER-phagy induction (SNU475 cells [2]; 10 μM thapsigargin (FIG. 4)) | density of induced vesicles compared with the endoplasmic reticulum (SNU475 cells [2]; 10 μM thapsigargin (FIG. 4)) | generation of high-density vesicles (SNU475 cells [2]; 10 μM thapsigargin, ODT images (FIG. 1)) | change in the total number of vesicles over time (SNU475 cells [2]; [4]) | change in volume of vesicles over time (SNU475 cells [2]; [4]) | density of the endoplasmic reticulum upon treatment (SNU475 cells [2]; before and after 10 μM thapsigargin (FIG. 4C)) | activation of SEC62 through colocalization with LC3 (SEC62) | activation of FAM134B through colocalization with LC3 (FAM134B) | activation of CCPG1 through colocalization with LC3 (CCPG1) | activation of RTN3 through colocalization with LC3 (RTN3) | colocalization of high-density vesicles produced in the cytoplasm (SNU475 cells [3]) | change in vesicles (SNU475 cells [2]; TC 60 ug/mL, ODT images 2 hours after treatment (FIG. 8B))
1 | C/C=C(/C)C(=O)O[C@H]1C(C)=C2[C@H]([C@@H]1OC(=O)CCCCCCC)[C@@](C)(OC(C)=O)C[C@H](OC(=O)CCC)[C@@]1(O)[C@H]2OC(=O)[C@@]1(C)O [thapsigargin] | vesicles and lysosomes that contain ER components were produced | about 15 minutes | did not include mitochondrial components | decreased over time | increased over time | induced | higher density than the endoplasmic reticulum | high-density vesicles were generated | decreased over time | increased over time | decreased | activated | activated | activated | activated | specifically colocalized with the endoplasmic reticulum and lysosomes | 
2 | tunicamycin [TC] |  |  |  |  |  |  |  |  |  |  |  |  |  |  |  |  | the same changes in the vesicles as those upon treatment with thapsigargin occurred
